Test results taken from patent publication US20190151283A1, “NON-STEROIDAL SELECTIVE GLUCOCORTICOID RECEPTOR AGONISTIC MODULATORS (SEGRAMs) AND USES THEREOF” (ASSOCIATION POUR LA RECHERCHE À L'IGBMC (ARI), priority 2017, published 2019).

What was measured:
Assay type in all cases: in vivo, mouse
mice = assay: House dust mite (HDM)-induced asthma-like allergic lung inflammation
Procedure: Glucocorticoids have been (Pearlman et al., 1997. Ann Allergy Asthma Immunol. 78(4):356-62), and are still, widely used in asthma therapy. In order to investigate the possible CpdX anti-inflammatory activity in vivo, mice were sensitized and challenged with either ovalbumin (OVA) or house dust mite (HDM) to induce an asthma-like allergic lung inflammation.
Mice were intranasally sensitized with 1 μg HDM from DO to D4, and further intranasally sensitized with 10 μg HDM on D14 and D21. Mice were then subdivided into eight groups, and on D29, D30 and D31, each mouse was again intranasally challenged with 1 μg HDM. The first seven groups received respectively 0.5 mg/kg of body weight of Dex, CpdX, CpdX(eA), CpdX(eB), CpdX-D3, CpdX-D3(eA) or CpdX-D3(eB), while the eighth group served as a control.
On D32, the airway responsiveness was invasively determined using a computer-controlled small animal ventilator (FlexVent® system, SCIREQ Technologies). Mice were anesthetized with xylazine (15 mg/kg, i.p.), followed 15 minutes later by an i.p. injection of pentobarbital sodium (54 mg/kg). An 18-gauge metal needle was then inserted into the trachea, each mouse was connected to the FlexVent® ventilator and quasi-sinusoidally ventilated with a tidal volume of 10 mL/kg at a frequency of 150 breaths/minute and a positive end-expiratory pressure of 2 cm H2O, in order to achieve a mean lung volume close to spontaneous breathing. After baseline measurement, mice were challenged for 10 seconds with a saline aerosol and, at 4.5-minute intervals, with 50 mg/mL methacholine. Airway resistance and elastance were expressed as cmH20·s/mL and cmH2O/mL respectively.
The lung allergic inflammation was assessed by examination of the bronchoalveolar lavage (BAL) fluid from each of these HDM-challenged mice. The total BAL cells, eosinophils, neutrophils, macrophages and lymphocytes were counted. RNA transcripts were extracted from lung samples. RNA transcripts of IL-1β, IL-6, IL-4, IL-5, IL-13, Eotaxin, CCL4, IL-10 and TNFα were analyzed by q-RT-PCR. Lung tissues were harvested and histological (with H&E staining) and immunohistochemical analyses were also carried out (with eosinophil-specific and neutrophil-specific antibodies).

Male mice (DBA-1 strain) = assay: Collagen-induced arthritis (CIA); conditions: q-RT-PCR, T10; 'but not' = not repressed
Procedure: Mice were treated with collagen to induce a Th17 rheumatoid arthritis-like inflammation as described by Inglis et al. (2007. Arthritis Res Ther. 9(5):R113) and Geboes et al. (2009. Arthritis Rheum. 60(2):390-5).
Male mice (DBA-1 strain) were subcutaneously-injected with 100 μg collagen per mouse on D0. The hind paw thickness at the ankle level was regularly measured with a caliper. When the ankle thickness had reached around 4 mm (T0, i.e., 30 to 50 days after the collagen injection on D0), mice were daily intraperitoneally-injected for 10 days (T0 to T10) with either vehicle (NaCl 0.9%), Dex, CpdX, CpdX(eA), CpdX(eB), CpdX-D3, CpdX-D3(eA) or CpdX-D3(eB) (1 mg/kg body weight diluted in NaCl 0.9%), and the hind paw thickness at the ankle level was daily measured with a caliper. Pictures of the hind paws were taken at days T0 and T10 (before and after the treatment with either Vehicle, Dex, CpdX, CpdX(eA), CpdX(eB), CpdX-D3, CpdX-D3(eA) or CpdX-D3(eB)), in order to assess the course of swelling.
RNA transcripts were extracted from whole hind paws of collagen-untreated and collagen-treated mice at T0 and T10. IL-1β, IL-6, IL-17a, IL-17f and TNFα transcripts were analyzed by q-RT-PCR.

Balb/C mice = assay: Ovalbumin (OVA)-induced allergic conjunctivitis; conditions: 0.1% instillation D22 to D24, 20 minutes after the last OVA challenge
Procedure: To investigate the anti-inflammatory effect of CpdX or CpdX-D3 on an allergic conjunctivitis, Balb/C mice were intraperitoneally sensitized with 50 μg OVA with alum on both days D1 and D8, and then challenged from D15 to D21 with 250 μg OVA in 5 μL of sterilized vehicle (0.9% NaCl), which were directly instilled onto the conjunctival sac. From D22 to D24, mice were divided into several groups, and received instillations with either OVA alone, OVA together with 0.1% of either Dex, CpdX, CpdX(eA), CpdX(eB), CpdX-D3, CpdX-D3(eA) or CpdX-D3(eB).
The clinical appearance of mouse eyes was evaluated 20 minutes after the last instillation on D24. Clinical signs (conjunctival hyperemia, lid edema and tearing) were scored to evaluate the occurrence and severity of conjunctivitis as described by Gimenes et al. (2015. Experimental Eye Research 134:24-32). Parameters were graded on a scale ranging from 0 to 3, (0=absence, 1=mild, 2=moderate, and 3=severe symptoms), each animal receiving a total clinical score ranging from 0 to 9. The data were expressed as mean±SEM with at least four mice per treatment.

B6 male mice [1] = assay: Organ weights (thymus, spleen, adrenal gland, kidney) after three-month treatment; conditions: s.c. 1 mg/kg daily, three months
Procedure: B6 male mice (8-week-old) were daily subjected for three months to a subcutaneous injection of either vehicle (NaCl 0.9%), Dex, CpdX, CpdX(eA), CpdX(eB), CpdX-D3, CpdX-D3(eA) or CpdX-D3(eB) (1 mg/kg body weight, diluted in vehicle). Following these treatments, four organs (thymus, spleen, adrenal gland and kidney) were harvested and weighted.

B6 male mice [2] = assay: Fatty liver after three-month treatment; conditions: three months
Procedure: B6 male mice (8-week-old) were daily subjected for three months to a subcutaneous injection of either vehicle (NaCl 0.9%), Dex, CpdX, CpdX(eA), CpdX(eB), CpdX-D3, CpdX-D3(eA) or CpdX-D3(eB) (1 mg/kg body weight, diluted in vehicle). Following this treatment, blood was collected at 10 a.m. by retro-orbital puncture in lithium-heparin coated vials. The plasmatic levels of total cholesterol and bile acids were determined.
Liver samples were harvested. […] RNA transcripts were extracted from liver samples and the transcripts of fatty acid synthase (FASN) and Stearoyl-CoA desaturase 1 (SCD1) genes were analyzed by q-RT-PCR.

spleen weight (B6 male mice [1]): not decreased
weight of the adrenal gland (B6 male mice [1]): increased
transcripts of fatty acid synthase (FASN) and Stearoyl-CoA desaturase 1 (SCD1) in liver (B6 male mice [2]; q-RT-PCR, 'but not' = no increase): but not
blood cholesterol and bile acids' levels (B6 male mice [2]; 'but not' = no clear increase): but not
SMILES: [2H]C([2H])([2H])Oc1ccc(F)cc1C(C)(C)CC(O)(CNc1ccc2c(c1)COC2=O)C(F)(F)F (stereo not shown) [CpdX-D3(eA), 5-{4-[2-(methoxy-D3)-5-fluorophenyl]-2-hydroxy-4-methyl-2-(trifluoromethyl)pentylamino}isobenzofuran-1(3H)-one]
total number of BAL cells, eosinophils and lymphocytes (mice; 0.5 mg/kg on D29-D31, BAL on D32, vs control group): efficiently decreased
peribronchiolar and perivascular inflammatory cell infiltration (mice; histology of lung paraffin sections): decreased
expressions of IL-1β, IL-6, IL-4, IL-5, IL-13, Eotaxin and CCL4 (pro-inflammatory genes) in lung samples (mice; q-RT-PCR, D32): efficiently decreased
RNA transcripts of the pro-inflammatory genes expressed in the hind paws (IL-1β, IL-6, IL-17a, IL-17f, TNFα) (Male mice (DBA-1 strain)): similarly repressed
clinical signs of allergic conjunctivitis (conjunctival hyperemia, lid edema and tearing) (Balb/C mice): considerably reduced
thymus apoptosis / thymus found (B6 male mice [1]): did not result in any significant thymus apoptosis
